From BindingDB's records for doi:10.1021/jm00121a046 (University of Kentucky, 1989)

How the values were obtained:
[1] = target: Prostaglandin F2-alpha receptor (Sheep); experiment: Binding potency towards Prostaglandin F2 alpha receptor (competitive binding) with natural [3H]-PGF 2 alpha in ovine luteal cells (OLC)
[2] = target: Prostaglandin F2-alpha receptor (Sheep); experiment: as above; remark: listed apart in the source

| IC50 [1] | IC50 [2] | Compound |
| --- | --- | --- |
| 0.35 µM | – | [N-]=[N+]=Nc1ccc(CC[C@H](O)/C=C/[C@@H]2[C@@H](C/C=C\CCCC(=O)O)[C@@H](O)C[C@H]2O)cc1I |
| – | 11 µM | [N-]=[N+]=Nc1cc(O)cc(OC[C@H](O)/C=C/[C@@H]2[C@@H](C/C=C\CCCC(=O)O)[C@@H](O)C[C@H]2O)c1 |
| – | 6.1 µM | [N-]=[N+]=Nc1ccc(CC[C@H](O)/C=C/[C@@H]2[C@@H](C/C=C\CCCC(=O)O)[C@@H](O)C[C@H]2O)c(O)c1 |
